According to patent publication US20250313556A1, “CERTAIN CHEMICAL ENTITIES, COMPOSITIONS, AND METHODS” (MRJA THERAPEUTICS, INC., priority 2022, published 2025):

Each compound was assayed against c-KIT (Homo sapiens, UniProt P10721) (assay: c-KIT ADP-Glo biochemical assay). Details: class ranges.
Chain of c-KIT (P10721 26-976): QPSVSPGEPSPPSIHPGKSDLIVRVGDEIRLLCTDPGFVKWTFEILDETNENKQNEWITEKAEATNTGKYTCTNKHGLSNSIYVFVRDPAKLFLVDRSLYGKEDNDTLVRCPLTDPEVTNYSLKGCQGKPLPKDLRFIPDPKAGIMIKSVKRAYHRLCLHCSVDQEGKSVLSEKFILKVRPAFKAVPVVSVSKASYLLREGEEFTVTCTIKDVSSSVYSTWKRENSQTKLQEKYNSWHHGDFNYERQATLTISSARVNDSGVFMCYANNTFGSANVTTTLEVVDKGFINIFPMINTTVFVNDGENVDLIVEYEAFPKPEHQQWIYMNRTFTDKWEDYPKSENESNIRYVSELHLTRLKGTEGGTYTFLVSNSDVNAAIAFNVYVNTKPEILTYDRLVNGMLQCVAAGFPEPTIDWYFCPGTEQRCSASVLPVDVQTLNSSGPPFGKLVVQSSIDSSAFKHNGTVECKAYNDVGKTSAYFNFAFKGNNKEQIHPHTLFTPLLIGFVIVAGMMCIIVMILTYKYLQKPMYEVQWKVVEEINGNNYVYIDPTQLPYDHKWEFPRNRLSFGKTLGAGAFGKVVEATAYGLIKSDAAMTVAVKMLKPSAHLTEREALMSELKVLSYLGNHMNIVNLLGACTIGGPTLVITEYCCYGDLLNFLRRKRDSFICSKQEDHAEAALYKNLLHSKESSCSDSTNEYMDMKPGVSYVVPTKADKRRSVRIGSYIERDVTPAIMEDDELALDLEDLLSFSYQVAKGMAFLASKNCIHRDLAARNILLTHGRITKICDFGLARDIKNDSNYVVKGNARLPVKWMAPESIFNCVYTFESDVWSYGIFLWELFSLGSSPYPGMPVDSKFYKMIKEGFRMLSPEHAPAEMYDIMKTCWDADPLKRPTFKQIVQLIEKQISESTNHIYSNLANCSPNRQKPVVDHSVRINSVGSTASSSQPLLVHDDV
Procedure: The inhibitory activity against c-KIT was measured using ADP-Glo assay. The percent (%) inhibition at each concentration of compound is calculated based on and relative to the luminescence signal in the Max and Min control wells contained within each assay plate. The Max control wells contain enzyme and substrate as 0% inhibition, and the Min control wells only contain substrate without enzyme as 100% inhibition. The concentrations and % inhibition values for tested compounds are plotted and the concentration of compound required for 50% inhibition (IC50) is determined with a four-parameter logistic dose response equation. The ability of the compounds in Table 1 to inhibit c-KIT was determined.
Work on COC(=O)N1CCC[C@H](c2nc(-c3cc(F)c(C)c(NC(=O)c4cnc5ccccn45)c3F)no2)C1 [Compound C056, methyl (S)-3-(3-(2,5-difluoro-3-(imidazo[1,2-a]pyridine-3-carboxamido)-4-methylphenyl)-1,2,4-oxadiazol-5-yl)piperidine-1-carboxylate] yielded an IC50 of 0.1 to 1 µM. Cc1c(F)cc(-c2noc(C3CC(F)(F)C3)n2)cc1NC(=O)c1cnc2cc(N3CCN(C)CC3)ccn12 [Compound C011, N-(5-(5-(3,3-difluorocyclobutyl)-1,2,4-oxadiazol-3-yl)-3-fluoro-2-methylphenyl)-7-(4-methylpiperazin-1-yl)imidazo[1,2-a]pyridine-3-carboxamide] showed an IC50 of 0.1 to 1 µM. For COC(=O)N1CC(c2nc(-c3cc(F)c(C)c(NC(=O)c4cnc5ccc(C)cn45)c3)no2)C1 [Compound C021, methyl 3-(3-(3-fluoro-4-methyl-5-(6-methylimidazo[1,2-a]pyridine-3-carboxamido)phenyl)-1,2,4-oxadiazol-5-yl)azetidine-1-carboxylate], the IC50 was 0.1 to 1 µM. Cc1c(F)cc(-c2noc([C@H]3C[C@@H]3F)n2)cc1NC(=O)c1cnc2cc(N3CCOCC3)ccn12 [Compound C014, N-(3-fluoro-5-(5-((1R,2S)-2-fluorocyclopropyl)-1,2,4-oxadiazol-3-yl)-2-methylphenyl)-7-morpholinoimidazo[1,2-a]pyridine-3-carboxamide] was tested, and the IC50 was 0.1 to 1 µM. For Cc1c(F)cc(-c2noc([C@@H]3C[C@H]3F)n2)cc1NC(=O)c1cnc2cc(N3CCOCC3)ccn12 [Compound C050, N-(3-fluoro-5-(5-((1S,2R)-2-fluorocyclopropyl)-1,2,4-oxadiazol-3-yl)-2-methylphenyl)-7-morpholinoimidazo[1,2-a]pyridine-3-carboxamide], the IC50 was 0.1 to 1 µM. In the case of Cc1c(F)cc(-c2noc(C3CC(F)(F)C3)n2)cc1NC(=O)c1cnn2ccccc12 [Compound C004, N-(5-(5-(3,3-difluorocyclobutyl)-1,2,4-oxadiazol-3-yl)-3-fluoro-2-methylphenyl)pyrazolo[1,5-a]pyridine-3-carboxamide], the IC50 is reported as 1 to 20 µM. With Cc1c(F)cc(-c2noc([C@H]3C[C@@H]3F)n2)cc1NC(=O)c1cnc2cc(N3CCNCC3)ccn12 (racemic) [Compound C022, N-(3-fluoro-5-(5-((1R,2S)-2-fluorocyclopropyl)-1,2,4-oxadiazol-3-yl)-2-methylphenyl)-7-(piperazin-1-yl)imidazo[1,2-a]pyridine-3-carboxamide] the IC50 was 1 to 20 µM. Work on COC(=O)N1CC(c2nc(-c3cc(F)c(C)c(NC(=O)c4cnc5cc(C(N)=O)ccn45)c3)no2)C1 [Compound C043, methyl 3-(3-(3-(7-carbamoylimidazo[1,2-a]pyridine-3-carboxamido)-5-fluoro-4-methylphenyl)-1,2,4-oxadiazol-5-yl)azetidine-1-carboxylate] yielded an IC50 of at most 0.1 µM. With COCCOC(=O)N1CC(c2nc(-c3cc(F)c(C)c(NC(=O)c4cnc5ccccn45)c3)no2)C1 [Compound C042, 2-methoxyethyl 3-(3-(3-fluoro-5-(imidazo[1,2-a]pyridine-3-carboxamido)-4-methylphenyl)-1,2,4-oxadiazol-5-yl)azetidine-1-carboxylate] the IC50 was 0.1 to 1 µM. Compound COC(=O)N1CC(c2nc(-c3cc(F)c(C)c(NC(=O)c4cnc5ccccn45)c3F)no2)C1 [Compound C052, methyl 3-(3-(2,5-difluoro-3-(imidazo[1,2-a]pyridine-3-carboxamido)-4-methylphenyl)-1,2,4-oxadiazol-5-yl)azetidine-1-carboxylate] has an IC50 of at most 0.1 µM. COC(=O)N1CC(c2nc(-c3cc(F)c(C)c(NC(=O)c4cnc5ccc(F)cn45)c3)no2)C1 [Compound C019, methyl 3-(3-(3-fluoro-5-(6-fluoroimidazo[1,2-a]pyridine-3-carboxamido)-4-methylphenyl)-1,2,4-oxadiazol-5-yl)azetidine-1-carboxylate] was tested, and the IC50 was 0.1 to 1 µM. COC(=O)N1CC(c2nc(-c3cc(F)c(C)c(NC(=O)c4cnn5ccccc45)c3)no2)C1 [Compound C006, methyl 3-(3-(3-fluoro-4-methyl-5-(pyrazolo[1,5-a]pyridine-3-carboxamido)phenyl)-1,2,4-oxadiazol-5-yl)azetidine-1-carboxylate] was tested, and the IC50 was 0.1 to 1 µM. Compound COC(=O)N1CC(c2nc(-c3cc(F)c(C)c(NC(=O)c4cnc5ccc(N6CCNCC6)cn45)c3)no2)C1 [Compound C020, methyl 3-(3-(3-fluoro-4-methyl-5-(6-(piperazin-1-yl)imidazo[1,2-a]pyridine-3-carboxamido)phenyl)-1,2,4-oxadiazol-5-yl)azetidine-1-carboxylate] has an IC50 of 1 to 20 µM. Work on COC(=O)N1CC[C@@H](c2nc(-c3cc(F)c(C)c(NC(=O)c4cnc5ccccn45)c3F)no2)C1 [Compound C053, methyl (R)-3-(3-(2,5-difluoro-3-(imidazo[1,2-a]pyridine-3-carboxamido)-4-methylphenyl)-1,2,4-oxadiazol-5-yl)pyrrolidine-1-carboxylate] yielded an IC50 of 1 to 20 µM. With COC(=O)N1CC(c2nc(-c3cc(F)c(C)c(NC(=O)c4cnc5ccccn45)c3)no2)C1 [Compound C003, methyl 3-(3-(3-fluoro-5-(imidazo[1,2-a]pyridine-3-carboxamido)-4-methylphenyl)-1,2,4-oxadiazol-5-yl)azetidine-1-carboxylate] the IC50 was at most 0.1 µM. COC(=O)N1CC[C@H](c2nc(-c3cc(F)c(C)c(NC(=O)c4cnc5ccccn45)c3F)no2)C1 [Compound C055, methyl (S)-3-(3-(2,5-difluoro-3-(imidazo[1,2-a]pyridine-3-carboxamido)-4-methylphenyl)-1,2,4-oxadiazol-5-yl)pyrrolidine-1-carboxylate] gave an IC50 of 0.1 to 1 µM. In the case of COC(=O)N1CC(c2nc(-c3cc(F)c(C)c(NC(=O)c4cnc5cc(C)ccn45)c3)no2)C1 [Compound C017, methyl 3-(3-(3-fluoro-4-methyl-5-(7-methylimidazo[1,2-a]pyridine-3-carboxamido)phenyl)-1,2,4-oxadiazol-5-yl)azetidine-1-carboxylate], the IC50 is reported as 0.1 to 1 µM. In the case of COC(=O)N1CC(c2nc(-c3cc(F)c(C)c(NC(=O)c4cnc5cc(C#N)ccn45)c3)no2)C1 [Compound C035, methyl 3-(3-(3-(7-cyanoimidazo[1,2-a]pyridine-3-carboxamido)-5-fluoro-4-methylphenyl)-1,2,4-oxadiazol-5-yl)azetidine-1-carboxylate], the IC50 is reported as 1 to 20 µM. Cc1c(F)cc(-c2noc([C@H]3C[C@H]3F)n2)cc1NC(=O)c1cnn2ccccc12 (racemic) [Compound C005] was tested, and the IC50 was 0.1 to 1 µM. With COC(=O)N1CC(c2nc(-c3cc(F)c(C)c(NC(=O)c4cnc5ccc(C(N)=O)cn45)c3)no2)C1 [Compound C040, methyl 3-(3-(3-(6-carbamoylimidazo[1,2-a]pyridine-3-carboxamido)-5-fluoro-4-methylphenyl)-1,2,4-oxadiazol-5-yl)azetidine-1-carboxylate] the IC50 was at most 0.1 µM. In the case of Cc1c(F)cc(-c2noc([C@H]3C[C@@H]3F)n2)cc1NC(=O)c1cnc2ccc(N3CCNCC3)cn12 (racemic) [Compound C026, N-(3-fluoro-5-(5-((1R,2S)-2-fluorocyclopropyl)-1,2,4-oxadiazol-3-yl)-2-methylphenyl)-6-(piperazin-1-yl)imidazo[1,2-a]pyridine-3-carboxamide], the IC50 is reported as 0.1 to 1 µM. With COC(=O)N1CC(c2nc(-c3cc(F)c(C)c(NC(=O)c4cnc5ccc(N6CCN(C)CC6)cn45)c3)no2)C1 [Compound C028, methyl 3-(3-(3-fluoro-4-methyl-5-(6-(4-methylpiperazin-1-yl)imidazo[1,2-a]pyridine-3-carboxamido)phenyl)-1,2,4-oxadiazol-5-yl)azetidine-1-carboxylate] the IC50 was 0.1 to 1 µM. Cc1c(F)cc(-c2noc([C@H]3C[C@@H]3F)n2)cc1NC(=O)c1cnc2ccc(N3CCN(C)CC3)cn12 (racemic) [Compound C034, N-(3-fluoro-5-(5-((1R,2S)-2-fluorocyclopropyl)-1,2,4-oxadiazol-3-yl)-2-methylphenyl)-6-(4-methylpiperazin-1-yl)imidazo[1,2-a]pyridine-3-carboxamide] was tested, and the IC50 was 0.1 to 1 µM. Compound CC(=O)N1CCN(c2ccn3c(C(=O)Nc4cc(-c5noc(C6CC(F)(F)C6)n5)cc(F)c4C)cnc3c2)CC1 [Compound C018, 7-(4-acetylpiperazin-1-yl)-N-(5-(5-(3,3-difluorocyclobutyl)-1,2,4-oxadiazol-3-yl)-3-fluoro-2-methylphenyl)imidazo[1,2-a]pyridine-3-carboxamide] has an IC50 of 0.1 to 1 µM. In the case of COC(=O)N1CCC[C@@H](c2nc(-c3cc(F)c(C)c(NC(=O)c4cnc5ccccn45)c3)no2)C1 [Compound C049, methyl (R)-3-(3-(3-fluoro-5-(imidazo[1,2-a]pyridine-3-carboxamido)-4-methylphenyl)-1,2,4-oxadiazol-5-yl)piperidine-1-carboxylate], the IC50 is reported as 0.1 to 1 µM. Work on CC(=O)N1CCN(c2ccc3ncc(C(=O)Nc4cc(-c5noc(C6CC(F)(F)C6)n5)cc(F)c4C)n3c2)CC1 [Compound C038, 6-(4-acetylpiperazin-1-yl)-N-(5-(5-(3,3-difluorocyclobutyl)-1,2,4-oxadiazol-3-yl)-3-fluoro-2-methylphenyl)imidazo[1,2-a]pyridine-3-carboxamide] yielded an IC50 of at most 0.1 µM. For Cc1c(F)cc(-c2noc(C3CN(C(=O)OCCN)C3)n2)cc1NC(=O)c1cnc2ccccn12 [Compound C041, 2-aminoethyl 3-(3-(3-fluoro-5-(imidazo[1,2-a]pyridine-3-carboxamido)-4-methylphenyl)-1,2,4-oxadiazol-5-yl)azetidine-1-carboxylate], the IC50 was at most 0.1 µM.

Same assay, conditions: comparison of prior art compounds (WO 2013/033167) with example 3 (C003)
COC(=O)N1CC(c2nc(-c3cc(NC(=O)c4cnc5ccccn45)c(C)cc3F)no2)C1 [methyl 3-(3-(2-fluoro-5-(imidazo[1,2-a]pyridine-3-carboxamido)-4-methylphenyl)-1,2,4-oxadiazol-5-yl)azetidine-1-carboxylate, reference compound] was tested, and the IC50 was 4.95 µM. With COC(=O)N1CC(c2nc(-c3cc(F)c(C)c(NC(=O)c4cnc5ccccn45)c3)no2)C1 [Compound C003, methyl 3-(3-(3-fluoro-5-(imidazo[1,2-a]pyridine-3-carboxamido)-4-methylphenyl)-1,2,4-oxadiazol-5-yl)azetidine-1-carboxylate] the IC50 was 0.043 µM.
